Test results from patent US20230095520A1, “PHARMACEUTICAL COMPOSITION FOR PREVENTING OR TREATING CANCER COMPRISING AZOLE DERIVATIVES OR PHARMACEUTICALLY ACCEPTABLE SALT THEREOF” (Yungjin Pharm. Co., Ltd., priority 2020, published 2023).

How the values were obtained:
MDA-MB-468 cells = assay: MDA-MB-468 cell proliferation inhibition (MTT); type: cell-based; settings: MDA-MB-468 proliferation
Protocol: MDA-MB-468 cells are one of the triple-negative breast cancer (TNBC: negative for the expression of estrogen receptor, progesterone receptor and HER2) cells known as a malignant tumor that is difficult to diagnose at an early stage and has a high metastatic capacity, and these cells are used to test inhibition of proliferation and survival of breast cancer cells.
MDA-MB-468 cells cultured in a 96-well cell culture plate were treated with the compound of the present invention and cultured for 72 hours. Thereafter, the antiproliferative effect of the compound was assayed by the MTT method using a tetrazolium salt.

MDA-MB-468 = assay: Cancer cell proliferation GI50 (CCK-8); type: cell-based; settings: Homo sapiens, MDA-MB-468, breast cancer, 72 hours
Protocol: (§1) The proliferation effect of SY-1365, which is known to have a proliferation inhibitory effect on various carcinoma cells, and the compound of the present invention on various cancer cells was measured and compared as GI50 (half maximal growth inhibitory concentration, the concentration at which cell proliferation is reduced by half).
(§2) Various carcinoma cells were cultured at 37° C. in a humidified condition in the presence of 5% CO2. Each cell cultured in a 96-well cell culture plate was treated with the compound of the present invention and cultured for 72 hours.
(§3) In this example, in order to confirm the proliferation inhibitory effect on various cancer cells, Compound 121 was tested as follows.
(§4) The cells were cultured with a culture medium shown in Table 9 below at 37° C. in a humidified condition in the presence of 5% CO2. Each cell cultured in a 96-well cell culture plate was treated with the compound of the present invention and cultured for 72 hours.

MDA-MB-231 = assay: Cancer cell proliferation GI50 (CCK-8); type: cell-based; settings: Homo sapiens, MDA-MB-231, breast cancer, 72 hours
Protocol: as §1, §2, §3, §4

Hep3B = assay: Cancer cell proliferation GI50 (CCK-8); type: cell-based; settings: Homo sapiens, liver cancer, 72 hours
Protocol: as §1, §2, §3, §4

Huh7 = assay: Cancer cell proliferation GI50 (CCK-8); type: cell-based; settings: Homo sapiens, Huh7 (Huh-7), liver cancer, 72 hours
Protocol: as §1, §2, §3, §4

HepG2 = assay: Cancer cell proliferation GI50 (CCK-8); type: cell-based, human; settings: Homo sapiens, HepG2, liver cancer, 72 hours
Protocol: as §1, §2, §3, §4

[1] = biological target: T1, Recombinant purified human CDK7 (Homo sapiens, UniProt P50613); assay: CDK7 activity inhibition, ADP-Glo kinase assay; type: biochemical; settings: ATP 90 μM, MBP substrate, 2 hours 30° C.
T1 construct: purchased ThermoFisher PV3868
T1 sequence (P50613 whole entry): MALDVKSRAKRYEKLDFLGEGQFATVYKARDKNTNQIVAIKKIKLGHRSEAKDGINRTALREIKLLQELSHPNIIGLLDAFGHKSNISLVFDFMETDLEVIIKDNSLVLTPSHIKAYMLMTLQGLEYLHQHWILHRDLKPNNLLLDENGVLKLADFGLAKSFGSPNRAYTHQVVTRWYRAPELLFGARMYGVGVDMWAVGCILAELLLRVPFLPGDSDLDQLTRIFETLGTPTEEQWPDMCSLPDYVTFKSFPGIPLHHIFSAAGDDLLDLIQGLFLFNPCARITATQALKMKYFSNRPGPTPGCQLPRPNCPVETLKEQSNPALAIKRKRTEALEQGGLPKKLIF
T1 sequence (P51946 whole entry partner): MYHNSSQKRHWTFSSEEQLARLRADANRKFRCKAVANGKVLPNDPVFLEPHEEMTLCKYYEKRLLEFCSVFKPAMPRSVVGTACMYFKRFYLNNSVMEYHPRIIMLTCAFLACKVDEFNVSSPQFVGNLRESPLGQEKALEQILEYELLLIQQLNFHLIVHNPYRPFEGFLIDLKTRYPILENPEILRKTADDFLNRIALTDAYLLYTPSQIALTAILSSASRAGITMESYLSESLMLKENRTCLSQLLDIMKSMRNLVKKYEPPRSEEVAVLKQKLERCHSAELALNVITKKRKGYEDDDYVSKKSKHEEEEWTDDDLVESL
T1 sequence (P51948 whole entry partner): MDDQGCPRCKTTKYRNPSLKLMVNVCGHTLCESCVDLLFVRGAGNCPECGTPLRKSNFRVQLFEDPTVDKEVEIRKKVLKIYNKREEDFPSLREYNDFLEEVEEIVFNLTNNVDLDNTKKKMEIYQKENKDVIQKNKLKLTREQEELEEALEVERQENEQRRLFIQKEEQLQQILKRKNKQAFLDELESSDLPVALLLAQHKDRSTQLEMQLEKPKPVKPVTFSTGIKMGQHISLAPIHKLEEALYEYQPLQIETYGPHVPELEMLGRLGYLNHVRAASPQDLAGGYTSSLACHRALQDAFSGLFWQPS
Outline: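 Human recombinant CDK7 (50 ng per reaction) in 40 mM Tris-Cl pH 7.5, 20 mM MgCl2, 0.1 mg/ml BSA, 50 μM DTT, with 1% DMSO. The reaction used 90 μM ATP and 0.2 μg/μl MBP substrate for 2 h at 30 °C. ADP formed was quantified by ADP-Glo luminescence to derive inhibition.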

MV-4-11 cells = assay: MV-4-11 cell proliferation inhibition (CCK-8); type: cell-based; settings: Homo sapiens, MV4-11, MV-4-11 proliferation, 72 hours
Outline: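 The FLT3-mutant AML line MV-4-11 was exposed to compound for 72 h. Antiproliferative effect was read with the tetrazolium-based CCK-8 method.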

MOLM-13-GFP human cells = assay: MOLM-13 orthotopic transplantation animal model; type: in vivo; settings: NSG mouse, tail vein, 1 or 2 mg/kg (2D on/5D off) or 2 mg/kg BIW, 3 to 4 weeks, versus control group
Protocol: MOLM-13 cells showing cancer cell inhibitory effect were selected, and Compound 121 was tested as follows using an orthotopic transplantation model.
The animal model used for efficacy evaluation is an NSG (Jackson lab, #005557, USA) mouse lacking the IL-2 receptor gamma gene, in which the immune activity of T cells, B cells, and NK cells is suppressed, and the efficacy was evaluated in an orthotopic transplantation model of MOLM-13-GFP human cells. For the induction method, an orthotopic transplantation model was induced by injecting the cells in an amount of 5×10^5 cells/200 ul/mouse into the tail vein route. Four test groups were G1 excipient control group vehicle (saline), G2 No. 121 1 mg/kg (2D on/5D off), G3 No. 121 2 mg/kg (2D on/ 5D off), and G4 No. 121 2 mg/kg (BIW), and 5 animals per group were set. From the day after cell injection, the tail vein administration of Compound 121 was started at each dose and regimen for 3 to 4 weeks.

TOM-1 = assay: Cancer cell proliferation GI50 (CCK-8); type: cell-based; settings: TOM-1, B cell acute lymphocytic leukemia, 72 hours
Protocol: as §3, §4

OCI-AML2 = assay: Cancer cell proliferation GI50 (CCK-8); type: cell-based; settings: Homo sapiens, OCI-AML2, acute myeloid leukemia, 72 hours
Protocol: as §3, §4

JURKAT = assay: Cancer cell proliferation GI50 (CCK-8); type: cell-based; settings: Homo sapiens, T cell acute lymphocytic leukemia, 72 hours
Protocol: as §3, §4

IC50 (MDA-MB-468 cells; Homo sapiens, MDA-MB-468, 72 h): ≤ 14 nM
IC50 (MDA-MB-468 cells; 72 hours): 14 nM
GI50 (MDA-MB-468): 4 nM
GI50 (MDA-MB-231): 6 nM
GI50 (Hep3B): 9 nM
GI50 (Huh7): 7 nM
GI50 (HepG2): 14 nM
IC50 [1]: 4.2 nM
IC50 (MV-4-11 cells): 4.3 nM
GI50 (TOM-1): 4.36 nM
GI50 (OCI-AML2): 7.74 nM
GI50 (JURKAT): 17.5 nM
SMILES: CCc1cnc(NC(=O)[C@@H](C)c2cccc(-c3cnc(NC(=O)/C=C/CN(C)C)c(C#N)c3)c2)s1 [Compound 121, (S,E)-N-(3-cyano-5-(3-(1-((5-ethylthiazol-2-yl)amino)-1-oxopropan-2-yl)phenyl)pyridin-2-yl)-4-(dimethylamino)but-2-enamide]
survival rate (MOLM-13-GFP human cells; FIG. 11): increase in the survival rate
change in body weight (MOLM-13-GFP human cells; FIG. 12): constant amount of body weight gain
